{"source": "paper PMC12396409", "about": "“Screening and hit evaluation of a microbial metabolite library against the pathogenic Plasmodium falciparum and Toxoplasma gondii parasites” (International Journal for Parasitology: Drugs and Drug …, 2025)", "key": {"[1]": {"tested_on": "P. falciparum 3D7 parasites", "assay": "P. falciparum growth inhibition assay, 1-cycle (72 h treatment), SYBR DNA staining (library screen at 2 μg/mL and dose-response)", "format": "cell-based, Plasmodium falciparum", "conditions": "72 h; for activity at 2 µg/mL: Plasmodium falciparum"}, "[2]": {"tested_on": "P. falciparum 3D7 parasites", "assay": "P. falciparum growth inhibition assay, 2-cycle (120 h treatment), delayed-death screen and dose-response", "format": "cell-based, Plasmodium falciparum", "conditions": "120 h; for activity at 2 µg/mL: Plasmodium falciparum"}, "[3]": {"tested_on": "T. gondii RH strain (RH-Tub-eYFP) tachyzoites", "assay": "microbe, parasite or virus in culture", "format": "cell-based, Toxoplasma gondii", "conditions": "72 h; for percent parasite growth at 2 µg/mL: Toxoplasma gondii"}, "[4]": {"conditions": "P. falciparum, screen at 2 μg/mL, replicate 1"}, "[5]": {"conditions": "P. falciparum, screen at 2 μg/mL, replicate 2"}, "[6]": {"conditions": "library screen at 2 μg/mL, % growth, replicate 1"}, "[7]": {"conditions": "library screen at 2 μg/mL, % growth, replicate 2"}, "[8]": {"conditions": "T. gondii, screen at 2 μg/mL, replicate 1, read-out: Tg_72h_%Growth_Rep1"}, "[9]": {"conditions": "T. gondii, screen at 2 μg/mL, replicate 2, read-out: Tg_72h_%Growth_Rep2"}, "[10]": {"conditions": "P. falciparum, parasite screen 2 μg/mL, % growth, replicate 1"}, "[11]": {"conditions": "P. falciparum, parasite screen 2 μg/mL, % growth, replicate 2"}}, "note": "Like-named read-outs stand apart in the source and are kept apart here. *1 amine or outer side, *2 acyl side, *3 side chain or, on linkers, in order; H or OH if unused. Where a SMILES comes first, the peptide text is derived from it. Bridges are numbered along the chain shown (N, C = ends). [ ]: non-standard residue; d: D form. The star is where a group is joined. Orn(4R-OH,5R-OH) = O=C([C@H](C[C@@H](O)[C@@H](O)N[*:3])N[*:1])[*:2]; Tetradecanoyl(10R,12S-Me2) = CC[C@H](C)C[C@H](C)CCCCCCCCC(=O)*; hTyr(3S-OH,4S-OH) = N[C@H](C(=O)O)[C@H](O)[C@@H](O)c1ccc(O)cc1; Gln(3R-OH) = NC(=O)C[C@@H](O)[C@H](N)C(=O)O; Pro(3S-OH) = O=C(O)[C@H]1NCC[C@@H]1O; Hyp = O=C(O)[C@@H]1C[C@@H](O)CN1", "data": [{"smiles": "CC[C@H]1C[C@@H]2CC[C@@H](O2)[C@@H](C)C(=O)O[C@H](CC)C[C@H]2CC[C@H](O2)[C@H](C)C(=O)O[C@@H](C)C[C@@H]2CC[C@@H](O2)[C@@H](C)C(=O)O[C@H](CC)C[C@H]2CC[C@H](O2)[C@H](C)C(=O)O1", "note": "[Trinactin]", "values": [{"measurement": "Pf_72h_%Growth_Rep1", "setting": "[1]; [4]", "value": 3.59, "unit": "%"}, {"measurement": "Pf_72h_%Growth_Rep2", "setting": "[1]; [5]", "value": -0.10, "unit": "%"}, {"measurement": "Pf_120h_%Growth_Rep1", "setting": "[2]; [4]", "value": 16.44, "unit": "%"}, {"measurement": "Pf_120h_%Growth_Rep2", "setting": "[2]; [5]", "value": 5.60, "unit": "%"}, {"measurement": "Tg_72h_%Growth_Rep1", "setting": "[3]; T. gondii, screen at 2 μg/mL, replicate 1", "value": 2.98, "unit": "%"}, {"measurement": "Tg_72h_%Growth_Rep2", "setting": "[3]; T. gondii, screen at 2 μg/mL, replicate 2", "value": 5.01, "unit": "%"}]}, {"smiles": "COc1cc(O)c2c(c1C)C(C)C(O)(CO)OC2=O", "note": "(stereo not drawn) [Banksialactone A]", "values": [{"measurement": "Pf_72h_%Growth_Rep1", "setting": "[1]; [6]", "value": 70.20, "unit": "%"}, {"measurement": "Pf_72h_%Growth_Rep2", "setting": "[1]; [7]", "value": 86.53, "unit": "%"}, {"measurement": "Pf_120h_%Growth_Rep1", "setting": "[2]; [6]", "value": 148.50, "unit": "%"}, {"measurement": "Pf_120h_%Growth_Rep2", "setting": "[2]; [7]", "value": 82.39, "unit": "%"}, {"measurement": "Tg_72h_%Growth_Rep1", "setting": "[3]; [6]", "value": 101.56, "unit": "%"}, {"measurement": "Tg_72h_%Growth_Rep2", "setting": "[3]; [7]", "value": 97.07, "unit": "%"}]}, {"smiles": "CC(C)[C@H]1C(=O)O[C@H](C(C)C)C(=O)N(C)[C@@H](C(C)C)C(=O)O[C@H](C(C)C)C(=O)N(C)[C@@H](C(C)C)C(=O)O[C@H](C(C)C)C(=O)N1C", "note": "[Enniatin B]", "values": [{"measurement": "activity at 2 µg/mL", "setting": "[1]; 3D7, library screen at 2 μg/mL, % growth, replicate 1, read-out: Pf_72h_%Growth_Rep1", "value": 4.68, "unit": "%"}, {"measurement": "activity at 2 µg/mL", "setting": "[1]; 3D7, library screen at 2 μg/mL, % growth, replicate 2, read-out: Pf_72h_%Growth_Rep2", "value": 1.65, "unit": "%"}, {"measurement": "activity at 2 µg/mL", "setting": "[2]; 3D7, library screen at 2 μg/mL, % growth, replicate 1, read-out: Pf_120h_%Growth_Rep1", "value": 2.26, "unit": "%"}, {"measurement": "activity at 2 µg/mL", "setting": "[2]; 3D7, library screen at 2 μg/mL, % growth, replicate 2, read-out: Pf_120h_%Growth_Rep2", "value": 4.15, "unit": "%"}, {"measurement": "percent parasite growth at 2 µg/mL", "setting": "[3]; library screen at 2 μg/mL, % growth, replicate 1, read-out: Tg_72h_%Growth_Rep1", "value": 3.2, "unit": "%"}, {"measurement": "percent parasite growth at 2 µg/mL", "setting": "[3]; library screen at 2 μg/mL, % growth, replicate 2, read-out: Tg_72h_%Growth_Rep2", "value": 30.3, "unit": "%"}]}, {"smiles": "CCCCCCCCCCCCCCCC(=O)OC[C@@H](NC(=O)C(Cl)Cl)[C@H](O)c1ccc([N+](=O)[O-])cc1", "note": "[Chloramphenicol palmitate]", "values": [{"measurement": "activity at 2 µg/mL", "setting": "[1]; 3D7, P. falciparum, screen at 2 μg/mL, replicate 1, read-out: Pf_72h_%Growth_Rep1", "value": 83.7, "unit": "%"}, {"measurement": "activity at 2 µg/mL", "setting": "[1]; 3D7, P. falciparum, screen at 2 μg/mL, replicate 2, read-out: Pf_72h_%Growth_Rep2", "value": 81.8, "unit": "%"}, {"measurement": "activity at 2 µg/mL", "setting": "[2]; 3D7, P. falciparum, screen at 2 μg/mL, replicate 1, read-out: Pf_120h_%Growth_Rep1", "value": 101, "unit": "%"}, {"measurement": "activity at 2 µg/mL", "setting": "[2]; 3D7, P. falciparum, screen at 2 μg/mL, replicate 2, read-out: Pf_120h_%Growth_Rep2", "value": 90.8, "unit": "%"}, {"measurement": "percent parasite growth at 2 µg/mL", "setting": "[3]; [8]", "value": 153, "unit": "%"}, {"measurement": "percent parasite growth at 2 µg/mL", "setting": "[3]; [9]", "value": 98.2, "unit": "%"}]}, {"smiles": "Cc1c2c(c(O)c3c(O)cccc13)C(=O)O[C@@H]2[C@@H]1[C@H](O)C(=O)C(C(N)=O)=C(O)[C@H]1N(C)C", "note": "[Apooxytetracycline, alpha-]", "values": [{"measurement": "Pf_72h_%Growth_Rep1", "setting": "[1]; [6]", "value": 86.78, "unit": "%"}, {"measurement": "Pf_72h_%Growth_Rep2", "setting": "[1]; [7]", "value": 89.73, "unit": "%"}, {"measurement": "Pf_120h_%Growth_Rep1", "setting": "[2]; [6]", "value": 91.28, "unit": "%"}, {"measurement": "Pf_120h_%Growth_Rep2", "setting": "[2]; [7]", "value": 90.91, "unit": "%"}, {"measurement": "Tg_72h_%Growth_Rep1", "setting": "[3]; [6]", "value": 81.07, "unit": "%"}, {"measurement": "Tg_72h_%Growth_Rep2", "setting": "[3]; [7]", "value": 111.56, "unit": "%"}]}, {"smiles": "CO[C@H]1[C@H](O)C[C@@H](O[C@@H]2C[C@H](Oc3cc4cc5c(c(O)c4c(O)c3C)C(=O)[C@@H](O[C@H]3C[C@H](O[C@H]4C[C@H](O[C@H]6C[C@@](C)(O)[C@@H](OC(=O)C(C)C)[C@H](C)O6)[C@H](O)[C@@H](C)O4)[C@H](O)[C@@H](C)O3)[C@H]([C@H](OC)C(=O)[C@@H](O)[C@@H](C)O)C5)O[C@H](C)[C@H]2OC(C)=O)O[C@@H]1C", "note": "[Chromomycin A2]", "values": [{"measurement": "activity at 2 µg/mL", "setting": "[1]; 3D7, 72 h, P. falciparum, screen at 2 μg/mL, replicate 1, read-out: Pf_72h_%Growth_Rep1", "value": 6.05, "unit": "%"}, {"measurement": "activity at 2 µg/mL", "setting": "[1]; 3D7, 72 h, P. falciparum, screen at 2 μg/mL, replicate 2, read-out: Pf_72h_%Growth_Rep2", "value": 1.3, "unit": "%"}, {"measurement": "activity at 2 µg/mL", "setting": "[2]; 3D7, 120 h, P. falciparum, screen at 2 μg/mL, replicate 1, read-out: Pf_120h_%Growth_Rep1", "value": 3.01, "unit": "%"}, {"measurement": "activity at 2 µg/mL", "setting": "[2]; 3D7, 120 h, P. falciparum, screen at 2 μg/mL, replicate 2, read-out: Pf_120h_%Growth_Rep2", "value": 9.04, "unit": "%"}, {"measurement": "percent parasite growth at 2 µg/mL", "setting": "[3]; [8]", "value": 2.51, "unit": "%"}, {"measurement": "percent parasite growth at 2 µg/mL", "setting": "[3]; [9]", "value": 1.82, "unit": "%"}]}, {"smiles": "C[C@H]1CC[C@H]2[C@@H](C=C[C@@H]3[C@H]4[C@@H](C)O[C@]5(O)[C@@H](CO)N(C)C(=O)[C@]45C(=O)[C@@]32C)C1", "note": "[Fusarisetin A]", "values": [{"measurement": "Pf_72h_%Growth_Rep1", "setting": "[1]; [6]", "value": 74.99, "unit": "%"}, {"measurement": "Pf_72h_%Growth_Rep2", "setting": "[1]; [7]", "value": 87.91, "unit": "%"}, {"measurement": "Pf_120h_%Growth_Rep1", "setting": "[2]; [6]", "value": 74.69, "unit": "%"}, {"measurement": "Pf_120h_%Growth_Rep2", "setting": "[2]; [7]", "value": 108.30, "unit": "%"}, {"measurement": "Tg_72h_%Growth_Rep1", "setting": "[3]; [6]", "value": 159.47, "unit": "%"}, {"measurement": "Tg_72h_%Growth_Rep2", "setting": "[3]; [7]", "value": 97.52, "unit": "%"}]}, {"smiles": "CC[C@H](C)C[C@H](C)CCCCCCCCC(=O)N[C@H]1C[C@@H](O)[C@@H](O)NC(=O)[C@@H]2[C@@H](O)CCN2C(=O)[C@H]([C@H](O)CC(N)=O)NC(=O)[C@H]([C@H](O)[C@@H](O)c2ccc(O)cc2)NC(=O)[C@@H]2C[C@@H](O)CN2C(=O)[C@H]([C@@H](C)O)NC1=O", "note": "[Pneumocandin B0] ({Tetradecanoyl(10R,12S-Me2)}-[Orn(4R-OH,5R-OH)]T[Hyp][hTyr(3S-OH,4S-OH)][Gln(3R-OH)][Pro(3S-OH)]; lactam 1-C)", "values": [{"measurement": "Pf_72h_%Growth_Rep1", "setting": "[1]; [10]", "value": 84.80, "unit": "%"}, {"measurement": "Pf_72h_%Growth_Rep2", "setting": "[1]; [11]", "value": 90.52, "unit": "%"}, {"measurement": "Pf_120h_%Growth_Rep1", "setting": "[2]; [10]", "value": 81.62, "unit": "%"}, {"measurement": "Pf_120h_%Growth_Rep2", "setting": "[2]; [11]", "value": 136.49, "unit": "%"}, {"measurement": "Tg_72h_%Growth_Rep1", "setting": "[3]; T. gondii, parasite screen 2 μg/mL, % growth, replicate 1", "value": 104.00, "unit": "%"}, {"measurement": "Tg_72h_%Growth_Rep2", "setting": "[3]; T. gondii, parasite screen 2 μg/mL, % growth, replicate 2", "value": 85.61, "unit": "%"}]}]}
